Source: patent EP0489933A1, “BILE ALCOHOL AND DRUG CONTAINING THE SAME AS ACTIVE INGREDIENT” (TSUMURA CO., LTD., priority 1990, dated 1992)
Read-outs that look alike come from different tables or passages of the source.

Key:
[1] = test system: platelet rich plasma (PRP); test: Platelet aggregation in platelet rich plasma after oral administration; assay type: in vivo, male rat; settings: 30 mg/kg, p.o., blood 90 minutes after administration
Description: Each drug to be tested was orally administered to each male rat which has been subjected to fasting treatment for 18 to 24 hours. After 90 minutes of the administration, median incision ventrotomy was carried out under ether anesthesia to collect 9 volumes of blood using a syringe filled with 1 volume of 3.8% sodium citrate solution (3.8% sodium citrate solution:blood = 1:9). After thorough mixing, the thus prepared mixture was centrifuged at 800 rpm for 10 minutes at room temperature to collect the resulting supernatant fluid as platelet rich plasma (PRP). The residual portion was centrifuged at 3,000 rpm for 15 minutes at room temperature to collect the resulting supernatant fluid as platelet poor plasma (PPP). The PRP was diluted with the PPP to adjust the number of platelets to 3×10⁵ ± 2×10⁴ cells/µl. A 450 µl portion of the thus diluted PRP was incubated at 37°C for 3 minutes and then mixed with 50 µl of 1×10⁻⁵ M of ADP or 1×10⁻⁵ g/ml of collagen. Thereafter, platelet aggregation test of the mixture was carried out using an aggregometer by measuring transmittance at 940 nm.

male mice of ddY line [2] = test: Blood oxygen and carbon dioxide partial pressure; assay type: in vivo; settings: 20 mg/kg, i.p.; blood from abdominal aorta 60 minutes after administration
Description: In this experiment, 4-week-old male mice of ddY line (10 individuals per one group) were used after fasting treatment for 24 hours.
After 60 minutes of the administration of each compound of the present invention, each mouse was subjected to ventrotomy under anesthesia with Nembutal® (Dainabot Co., Ltd.; 50 mg/kg, i.p.) to collect blood from abdominal aorta, and the collected blood sample was immediately checked for its oxygen partial pressure (PO₂) and carbon dioxide partial pressure (PCO₂) using a blood-aerotonometer (Model 170, Ciba-Corning).

[3] = test system: rats of diabetes mellitus; test: Blood sugar level in streptozotocin-induced diabetes mellitus; assay type: in vivo, male rats of Wistar line; settings: 50 mg/kg, i.o.; administered for 1 week beginning 1 week after streptozotocin (40 mg/kg); serum
Description: In this experiment, 8-week-old male rats of Wistar line (5 individuals per one group) were used after rearing them for 1 week with normal feed. Streptozotocin (40 mg/kg) was administered by tail intravenous injection to obtain rats of diabetes mellitus. Beginning after 1 week of the streptozotocin administration, oral administration of each test drug has been carried out for 1 week, followed by 24 hours of fasting. Thereafter, blood sample was collected from lower abdominal vena cava under anesthesia with Nembutal® (1 ml/kg, i.p.). Serum samples were prepared from the thus collected blood samples and checked for their blood sugar levels, with the results shown in Table 9.

male mice of ddY line [4] = test: Survival time under hypoxia (aeration with 96% nitrogen and 4% oxygen); assay type: in vivo; settings: 50 mg/kg, i.p., 60 minutes before aeration with 96% nitrogen and 4% oxygen; time to respiratory arrest
Description: In this experiment, 5 to 6-week-old male mice of ddY line (10 individuals per one group) were used after fasting treatment for 24 hours.
Each compound obtained in the present invention was administered intraperitoneally. After 60 minutes of the administration, each mouse was transferred separately into a transparent vessel (capacity, 1,000 ml) equipped with an air exit, and the vessel was aerated with a mixed gas consisting of 96% nitrogen and 4% oxygen at an aeration rate of 5 ℓ/min.
All tested mice died within 180 seconds after the commencement of the gas mixture aeration. Terminal respiration was observed several times prior to the respiratory arrest. Survival time of the control group was roughly in the range of from 96 to 111 seconds.

erythrocytes = test: Erythrocyte deformability (filtration through 5 µm filter) after oral administration; assay type: in vivo, male rats of Wistar line; settings: 30 mg/kg, p.o.; blood collected 90 minutes after administration; number of filtered erythrocytes
Description: In this experiment, 9-week-old male rats of Wistar line (5 to 6 individuals per one group) were used after rearing them for 1 week with normal feed. After 24 hours of fasting, each test drug was administered orally and, 90 minutes thereafter, blood sample was collected from lower abdominal vena cava of each rat under anesthesia with Nembutal® (1 ml/kg, i.p.). Blood samples obtained in this way were checked for their blood clotting time and erythrocyte deformability.
Measuring procedures are as follows.
Erythrocyte deformability ... The collected blood is extruded from a syringe with a constant flow of He in a holder equipped with a filter (5 µm). Weight of blood and the number of erythrocytes filtered during a fixed time are measured and the deformability is expressed based on the number of filtered erythrocytes. The results of these measurements are shown respectively in Tables 11 and 12.

red blood cells = test: Inhibition of thermal hemolysis of red blood cells; assay type: cell-based, donryu rats; settings: Rattus norvegicus, Erythrocyte, 20 min, 53°C for 20 minutes, read-out: Hemolysis Inhibition Ratio (%) against Control; for inhibition at 10 µM: 0.01 mM; for inhibition at 50 µM: 0.05 mM; for inhibition at 100 µM: 0.1 mM; for inhibition at 200 µM: 0.2 mM; for inhibition at 500 µM: 0.5 mM
Description: Blood was collected from donryu rats of 150 to 200 g in body weight and centrifuged at 1,500 rpm for 5 minutes to obtain red blood cells. The red blood cells thus collected were diluted with 0.15 M phosphate buffer (pH 7.4) to prepare a 5% red blood cell suspension. A 3.8 ml portion of the thus prepared suspension was mixed with 0.2 ml solution of each compound of the present invention which has been adjusted to each level of the concentrations as shown in the following table, and the resulting mixture was shaken thoroughly and incubated at 53°C for 20 minutes. Thereafter, the thus incubated mixture was cooled rapidly with tap water and centrifuged at 3,000 rpm for 15 minutes, and absorbance at 540 nm of the resulting supernatant fluid was measured using a spectrophotometer (Hitachi: Type 200-20). Inhibition rate (%) of red blood cell hemolysis at each concentration of the compound was calculated based on the absorbance, with the results shown in Table 8.

male SD rats = test: Thrombus formation in abdominal vena cava; assay type: in vivo; settings: 30 mg/kg, p.o.; dry weight of thrombus
Description: Each of male SD rats of 130 to 210 g in body weight was anesthetized with Nembutal® (50 mg/kg, i.p.) and subjected to median incision ventrotomy to release about a 2 cm portion of abdominal vena cava below the renal vein. Blood flow of the thus released vena cava was temporarily stopped for 5 minutes with 8 hemostatic clips. After recirculating blood for 5 minutes by removing the hemostatic clips, […] was ligated at a position just below the renal vein and the median-incised part was sutured. Two hours after the ligature, the thus treated rat was again subjected to ventrotomy to excise abdominal vena cava. The thus excised blood vessel was cut open on a filter paper which had been moistened with physiological saline, in order to take out thrombus. The thrombus thus obtained was washed with physiological saline to remove adhered blood and the like substances and then dried at 80°C for 12 hours or longer to measure its dry weight. In this instance, each drug to be tested was orally administered 90 minutes before the clipping to examine its effect by single administration on the formation of thrombus. Separately from this, each test drug was administered to 6-week-old male SD rat continuously for 7 days, thrombus was prepared in the eighth day in the same manner as described above and dry weight of the thrombus was measured, in order to examine effect of the continuous 7 day administration on the thrombus formation.

male mice of ddY line [5] = assay type: in vivo; settings: 50 mg/kg, i.p., 60 minutes before KCN (3.0 mg/kg) tail intravenous injection; for Survival Time ±S.E.: time to respiratory arrest

C[C@H](CCCC(CO)CO)[C@H]1CC[C@H]2[C@@H]3[C@H](O)C[C@H]4C[C@H](O)CC[C@]4(C)[C@H]3C[C@H](O)[C@]12C [Example 7, 3α,7α,12α,26,27-pentahydroxy-5α-cholestane]
Platelet Aggregation Ratio ±S.E. ([1]; ADP (1×10⁻⁵ M)): 44.3 ± 2.43%
Platelet Aggregation Ratio ±S.E. ([1]; Collagen (1×10⁻⁵ g/ml)): 42.1 ± 3.15%
Carbon Dioxide Partial Pressure (male mice of ddY line [2]): 41.1 mmHg
Oxygen Partial Pressure (male mice of ddY line [2]): 81.1 mmHg
Blood Sugar Level ± S.E. [3]: 161 ± 5.5 mg/dL
Survival Time ±S.E. (male mice of ddY line [4]): 121.5 ± 6.00 s
Erythrocyte Deformation: Erythrocyte counts ±S.E. (erythrocytes): 4.02 ± 0.37 × 10⁷
inhibition at 10 µM (red blood cells): 32%
inhibition at 50 µM (red blood cells): 21%
inhibition at 100 µM (red blood cells): 31%
inhibition at 200 µM (red blood cells): 61%
inhibition at 500 µM (red blood cells): 70%
Antithrombotic Effect: Thrombus weight ±S.E. (male SD rats): 12.2 ± 1.33 mg
Lethality (%) (male mice of ddY line [5]): 80%
Survival Time ±S.E. (male mice of ddY line [5]): 89 ± 9.99 s

C[C@H](CC[C@H](O)C(CO)CO)[C@H]1CC[C@H]2[C@@H]3[C@H](O)C[C@@H]4C[C@H](O)CC[C@]4(C)[C@H]3C[C@H](O)[C@]12C [Example 8, (24S)-3α,7α,12α,24,26,27-hexahydroxy-5β-cholestane]
Platelet Aggregation Ratio ±S.E. ([1]; ADP (1×10⁻⁵ M)): 41.8 ± 1.81%
Platelet Aggregation Ratio ±S.E. ([1]; Collagen (1×10⁻⁵ g/ml)): 46.6 ± 3.81%
Carbon Dioxide Partial Pressure (male mice of ddY line [2]): 42.1 mmHg
Oxygen Partial Pressure (male mice of ddY line [2]): 98.7 mmHg
Blood Sugar Level ± S.E. [3]: 112 ± 8.4 mg/dL
Survival Time ±S.E. (male mice of ddY line [4]): 144.8 ± 10.27 s
Erythrocyte Deformation: Erythrocyte counts ±S.E. (erythrocytes): 4.53 ± 0.82 × 10⁷
inhibition at 10 µM (red blood cells): 27%
inhibition at 50 µM (red blood cells): 20%
inhibition at 100 µM (red blood cells): 37%
inhibition at 200 µM (red blood cells): 50%
inhibition at 500 µM (red blood cells): 60%
Antithrombotic Effect: Thrombus weight ±S.E. (male SD rats): 10.5 ± 1.43 mg
Lethality (%) (male mice of ddY line [5]): 70%
Survival Time ±S.E. (male mice of ddY line [5]): 123.0 ± 7.19 s

C[C@H](CC[C@H](O)[C@@H](C)CO)[C@H]1CC[C@H]2[C@@H]3[C@H](O)C[C@@H]4C[C@H](O)CC[C@]4(C)[C@H]3C[C@H](O)[C@]12C [Example 9, (24S)-(25S)-3α,7α,12α,24,26-pentahydroxy-5β-cholestane]
Platelet Aggregation Ratio ±S.E. ([1]; ADP (1×10⁻⁵ M)): 41.1 ± 1.21%
Platelet Aggregation Ratio ±S.E. ([1]; Collagen (1×10⁻⁵ g/ml)): 49.1 ± 1.11%
Carbon Dioxide Partial Pressure (male mice of ddY line [2]): 43.3 mmHg
Oxygen Partial Pressure (male mice of ddY line [2]): 88.1 mmHg
Blood Sugar Level ± S.E. [3]: 125 ± 6.6 mg/dL
Survival Time ±S.E. (male mice of ddY line [4]): 126.5 ± 5.21 s
Erythrocyte Deformation: Erythrocyte counts ±S.E. (erythrocytes): 4.11 ± 0.44 × 10⁷
inhibition at 10 µM (red blood cells): 28%
inhibition at 50 µM (red blood cells): 23%
inhibition at 100 µM (red blood cells): 38%
inhibition at 200 µM (red blood cells): 51%
inhibition at 500 µM (red blood cells): 65%
Antithrombotic Effect: Thrombus weight ±S.E. (male SD rats): 12.5 ± 2.44 mg
Lethality (%) (male mice of ddY line [5]): 80%
Survival Time ±S.E. (male mice of ddY line [5]): 101.2 ± 10.1 s

C[C@H](CC[C@H](O)[C@H](C)CO)[C@H]1CC[C@H]2[C@@H]3[C@H](O)C[C@@H]4C[C@H](O)CC[C@]4(C)[C@H]3C[C@H](O)[C@]12C [Example 10, (24S)-(25R) 3α,7α,12α,24,26-pentahydroxy-5β-cholestane]
Platelet Aggregation Ratio ±S.E. ([1]; ADP (1×10⁻⁵ M)): 42.2 ± 2.33%
Platelet Aggregation Ratio ±S.E. ([1]; Collagen (1×10⁻⁵ g/ml)): 48.3 ± 1.65%
Carbon Dioxide Partial Pressure (male mice of ddY line [2]): 42.6 mmHg
Oxygen Partial Pressure (male mice of ddY line [2]): 87.5 mmHg
Blood Sugar Level ± S.E. [3]: 133 ± 3.8 mg/dL
Survival Time ±S.E. (male mice of ddY line [4]): 125.1 ± 3.89 s
Erythrocyte Deformation: Erythrocyte counts ±S.E. (erythrocytes): 4.41 ± 0.54 × 10⁷
inhibition at 10 µM (red blood cells): 24%
inhibition at 50 µM (red blood cells): 21%
inhibition at 100 µM (red blood cells): 31%
inhibition at 200 µM (red blood cells): 44%
inhibition at 500 µM (red blood cells): 58%
Antithrombotic Effect: Thrombus weight ±S.E. (male SD rats): 13.8 ± 2.85 mg
Lethality (%) (male mice of ddY line [5]): 80%
Survival Time ±S.E. (male mice of ddY line [5]): 111.1 ± 9.11 s
